Some test systems named below: OVCAR-5; NCI-H23; IGROV-1; KM12; A549; RPMI-8226; SK-MEL-28; MDA-MB-435; HL-60; HOP-62; MDA-MB-231; MDA-N; ACHN; Malme-3M; U-251; LOX IMVI; SNB-75; UACC-257; HOP-92.
Common to all, as to assay: inhibition of tumour cell growth, NCI panel, 48 h

The structures appear in SMILES notation.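 96-well plates; 48 h exposure; 5 concentrations. Endpoints by linear interpolation between flanking doses. Not reached: highest tested concentration assigned. GI50 = concentration required for 50% inhibition of growth.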 Activity calls are given as the source filed them. Rule as the data show it: active = GI50 up to about 1.1 µM and inactive = higher. Some results are limits rather than exact numbers.

In the case of `CNC(=O)/C(C#N)=C(\N)N1CCCC1`, the GI50 with OVCAR-5, in the test with NCI-H23, in the test on IGROV-1, in the test with KM12, in the test on A549 and in the test on RPMI-8226 was > 100 µM (inactive) each time. Moreover, the GI50 with SK-MEL-28, in the test with MDA-MB-435, with HL-60, in the test with HOP-62, with MDA-MB-231 and with MDA-N was > 100 µM (inactive) each time. Also, the GI50 with ACHN, in the test on Malme-3M and with U-251 was > 100 µM (inactive) each time.
As to `Cc1ccc2c(c1)C/C(=C\c1ccccc1C(=O)O)C2=O`, the GI50 with OVCAR-5, in the test with NCI-H23, in the test on IGROV-1, with KM12, with LOX IMVI and in the test with A549 was > 100 µM (inactive) in each case. In addition, the GI50 was > 100 µM (inactive) in the test with SNB-75; > 100 µM (inactive) in the test with UACC-257; 43.7 µM (inactive) with RPMI-8226; > 100 µM (inactive) with SK-MEL-28; > 100 µM (inactive) with HOP-92; > 100 µM (inactive) in the test with MDA-MB-435. Besides, the GI50 with HL-60, with HOP-62, in the test with MDA-N, in the test on ACHN, in the test on Malme-3M and with U-251 was > 100 µM (inactive) in each case.
On to `CC1=C[C@H]([C@H]2C=C(C)C(C(N)=O)=CN2Cc2c(Cl)cccc2Cl)N(Cc2c(Cl)cccc2Cl)C=C1C(N)=O`, for which the GI50 in the test on OVCAR-5 is > 75 µM (inactive); in the test on NCI-H23 it was > 75 µM (inactive); in the test on KM12, 55.5 µM (inactive); with LOX IMVI it was > 75 µM (inactive); in the test on A549 it was > 75 µM (inactive); in the test on UACC-257, 73.8 µM (inactive). The GI50 with RPMI-8226 was 69.7 µM (inactive); in the test with SK-MEL-28, > 75 µM (inactive); with HOP-92, 16 µM (inactive); in the test on MDA-MB-435, > 75 µM (inactive); in the test on HL-60, > 75 µM (inactive); in the test with HOP-62, > 75 µM (inactive). The GI50 is > 75 µM (inactive) with MDA-MB-231; 48.9 µM (inactive) in the test with MDA-N; > 75 µM (inactive) in the test on ACHN; > 75 µM (inactive) with Malme-3M; > 75 µM (inactive) in the test on U-251.
In the case of `CCCCC1Cc2ccccc2-c2n1c1ccccc1[n+]2C` (centres undefined), the GI50 was 42.9 µM (inactive) in the test on OVCAR-5; 2.17 µM (inactive) in the test on NCI-H23; 17.3 µM (inactive) with IGROV-1; 9.55 µM (inactive) in the test on KM12; 10.4 µM (inactive) in the test with LOX IMVI; 1.87 µM (inactive) with UACC-257. In addition, the GI50 in the test with RPMI-8226 is 1.94 µM (inactive); with SK-MEL-28, 11.3 µM (inactive); with HOP-92, 20.4 µM (inactive); with MDA-MB-435 it was 10.3 µM (inactive); with HL-60, 3.99 µM (inactive); in the test with HOP-62 it was 24.9 µM (inactive). The GI50 in the test with MDA-MB-231 was 22.2 µM (inactive); with MDA-N, 12.3 µM (inactive); in the test on ACHN, 37.9 µM (inactive); with U-251 it was 3.1 µM (inactive).
With `CC(=O)N1c2ccccc2C23CCN(C)CC4C(C)OCC(C4CC2=O)C13` (centres undefined), the GI50 in the test on OVCAR-5, in the test on NCI-H23, in the test with IGROV-1, with KM12, in the test on LOX IMVI and with A549 was > 100 µM (inactive) each time. The GI50 in the test on SNB-75, with UACC-257, in the test on SK-MEL-28, with HOP-92, in the test on MDA-MB-435 and in the test with HL-60 was > 100 µM (inactive) in each case. Further, the GI50 with MDA-MB-231, in the test on ACHN, with Malme-3M and with U-251 was > 100 µM (inactive) each time.
As to `CC1CC(N)=Nc2ccccc2N1` (centres undefined), the GI50 was > 100 µM (inactive) with OVCAR-5; > 100 µM (inactive) with NCI-H23; 54.2 µM (inactive) with IGROV-1; > 100 µM (inactive) in the test with KM12; > 100 µM (inactive) with LOX IMVI; > 100 µM (inactive) in the test on A549. Besides, the GI50 with SNB-75 was 30.1 µM (inactive); in the test on UACC-257, > 100 µM (inactive); with RPMI-8226, > 100 µM (inactive); in the test with SK-MEL-28, > 100 µM (inactive); with MDA-MB-435, > 100 µM (inactive); in the test on HL-60, > 100 µM (inactive). Moreover, the GI50 with HOP-62 is > 100 µM (inactive); in the test on MDA-MB-231 it was > 100 µM (inactive); in the test with MDA-N it was > 100 µM (inactive); in the test on ACHN it was > 100 µM (inactive); in the test on Malme-3M, 58.2 µM (inactive); with U-251, > 100 µM (inactive).
As for `C/C(=N\O)c1ccc(Nc2nc3ccccc3c3occc23)cc1`, the GI50 is 8.3 µM (inactive) in the test with OVCAR-5; 15.6 µM (inactive) in the test with NCI-H23; 7.01 µM (inactive) in the test with IGROV-1; 3.77 µM (inactive) in the test on KM12; 4.23 µM (inactive) in the test on LOX IMVI; 3.87 µM (inactive) with A549. Moreover, the GI50 was 5.12 µM (inactive) in the test with UACC-257; 2.58 µM (inactive) in the test on RPMI-8226; 6.78 µM (inactive) in the test with HOP-92; 6.58 µM (inactive) in the test with MDA-MB-435; 2.29 µM (inactive) in the test with HL-60; 11.3 µM (inactive) in the test on HOP-62. Moreover, the GI50 with MDA-MB-231 was 2.76 µM (inactive); in the test on MDA-N, 11.8 µM (inactive); in the test on ACHN it was 9.82 µM (inactive); in the test on Malme-3M, 19.9 µM (inactive); in the test with U-251, 12.6 µM (inactive).
With `COc1ccc2oc(=O)c(CC=C(C)C)c(O)c2c1C`, the GI50 with OVCAR-5, with NCI-H23, in the test on IGROV-1, in the test with KM12, in the test with LOX IMVI and in the test with A549 was > 100 µM (inactive) throughout. The GI50 in the test with SNB-75, in the test on UACC-257, in the test on RPMI-8226, in the test with SK-MEL-28, in the test on MDA-MB-435 and in the test on HL-60 was > 100 µM (inactive) throughout. In addition, the GI50 with HOP-62, in the test on MDA-MB-231, in the test on MDA-N, in the test on ACHN, in the test with Malme-3M and in the test with U-251 was > 100 µM (inactive) throughout.
On to `Cc1ccc(N2C(=O)C(O)=C(C(=O)C(C)(C)C)C2c2ccc([N+](=O)[O-])cc2)cc1` (centres undefined), for which the GI50 in the test on OVCAR-5 was 49.2 µM (inactive); in the test on NCI-H23 it was 15.4 µM (inactive); in the test on IGROV-1, 11.5 µM (inactive); in the test with KM12, 16.7 µM (inactive); in the test on LOX IMVI, 14.9 µM (inactive); in the test with A549 it was 23.6 µM (inactive). For the same molecule, the GI50 in the test on UACC-257 is 15.8 µM (inactive); with RPMI-8226 it was 10.9 µM (inactive); in the test on SK-MEL-28, 21.5 µM (inactive); in the test on HOP-92, 13.7 µM (inactive); in the test with MDA-MB-435, 17.4 µM (inactive); in the test with HL-60 it was 12.3 µM (inactive). Further, the GI50 was 17.3 µM (inactive) in the test on HOP-62; 18.9 µM (inactive) in the test with MDA-MB-231; 26 µM (inactive) in the test with MDA-N; 16.6 µM (inactive) with ACHN; 19 µM (inactive) in the test on Malme-3M; 26.6 µM (inactive) with U-251.
As to `CC/C=C/C(=O)CC(O)(C(F)(F)F)C(F)(F)F`, the GI50 with OVCAR-5, with NCI-H23, in the test with IGROV-1, with KM12, with LOX IMVI and with A549 was > 100 µM (inactive) each time. Also, the GI50 with SNB-75 was > 100 µM (inactive); with UACC-257, > 100 µM (inactive); in the test on RPMI-8226, 54.8 µM (inactive); in the test on SK-MEL-28, > 100 µM (inactive); with HOP-92, 32.4 µM (inactive); in the test with MDA-MB-435 it was > 100 µM (inactive). Also, the GI50 with HL-60 is 92.7 µM (inactive); in the test with HOP-62 it was > 100 µM (inactive); with MDA-MB-231, > 100 µM (inactive); in the test on ACHN it was > 100 µM (inactive); with Malme-3M, > 100 µM (inactive); in the test on U-251, > 100 µM (inactive).
For the molecule `COc1ccc(S(=O)(=O)O)cc1NS(=O)(=O)c1ccc(C)cc1`, the GI50 with OVCAR-5, with NCI-H23, in the test on IGROV-1, in the test with KM12, in the test on LOX IMVI and in the test on A549 was > 100 µM (inactive) in each case. For the same molecule, the GI50 in the test on SNB-75, in the test with UACC-257, in the test on RPMI-8226, with SK-MEL-28, with MDA-MB-435 and in the test on HL-60 was > 100 µM (inactive) throughout. Moreover, the GI50 in the test with HOP-62, in the test on MDA-MB-231, in the test with MDA-N, with ACHN and with U-251 was > 100 µM (inactive) in each case.
On to `c1ccc(C(=NNc2nc3ccccc3o2)c2ccccn2)nc1`, for which the GI50 is < 0.0175 µM (active) in the test with OVCAR-5; 0.0489 µM (active) in the test on NCI-H23; 0.148 µM (active) with KM12; 0.122 µM (active) in the test on LOX IMVI; 0.151 µM (active) in the test on A549; 0.0494 µM (active) in the test on UACC-257. The GI50 in the test on RPMI-8226 is 0.0327 µM (active); in the test on HOP-92 it was < 0.01 µM (active); in the test with MDA-MB-435 it was 0.232 µM (active); with HL-60, 0.0439 µM (active); with HOP-62 it was 0.0408 µM (active); in the test with MDA-MB-231 it was 0.055 µM (active). For the same molecule, the GI50 in the test on MDA-N is 0.191 µM (active); with ACHN, 0.0198 µM (active); with Malme-3M, 0.0182 µM (active); in the test on U-251 it was 0.0998 µM (active).

These data come from ChEMBL document CHEMBL1201862, “PubChem BioAssay data set” (2004).
